{"source": "patent US5462861A", "about": "“Method for improving enzyme activities with noble gases” (American Air Liquide, Chicago Research Center, priority 1993, dated 1995)", "key": {"Beta-D-glucosidase": {"test_system": "Beta-D-glucosidase", "experiment": "Beta-D-glucosidase activity under gas", "format": "biochemical", "procedure": "(§1) Solution preparation: Optimized w/v solutions are prepared by diluting the enzyme (units/ml) and the substrate (μg/ml) in appropriate buffer (optimized pH and molarity for enzymes). The solutions are used for gas experiments at once to avoid loss of activity. Various enzyme and substrate concentrations and inhibitors may be employed. Physical parameters are varied as required.\n(§2) Preparation of samples: Cuvets are filled with 2 ml of substrate solution by means of a gas-tight syringe. Gas-tight serum vials are filled with enzyme and solvent. Sufficient gas is consecutively bubbled in the cuvets and serum vials, with a 1-hr wait between injections to maximize equilibration of gas. All syringes and dead spaces are purged before filling with the appropriate gas. The amount of gas used has been measured sufficient to saturate the solution required.\n(§3) Spectrophotometric time-drive, reaction rate, and kinetic analyses: cuvets and serum vials are saturated with gas 40 minutes before the run. A gas-filled syringe is used to retrieve 0.5 ml of enzyme solution to avoid air contact. The 0.5 ml syringe injections of enzyme are made simultaneously to effect a common starting time to for the samples. 7 gases (air, O2, N2, Ne, Ar, Kr, Xe) are run at various temperatures each (from 0° to 60° ). Changes in the rate or final equilibrium of the reaction versus ambient air are recorded. Comparison is also made with added oxygen, and with deoxygenation. Some samples are also prepared under pressure.\n(§4) In a complete experiment, an enzyme at optimal pH and buffering salt concentration is reacted with 5 substrate concentrations in solution with noble gas at 1 atm. […] Controls are also run after evacuation of solution by vacuum. The reaction is monitored colorimetrically in a scanning spectrophotometer in real time, and the signals are treated mathematically to obtain rate and yield differences. Sample numbers are constant and sufficient to ensure significance of results. All parameters are independently controlled and measured, and more complex experiments are occasionally carried out."}, "citrate synthetase": {"target": "T1, citrate synthetase (Homo sapiens, UniProt O75390)", "T1 sequence (O75390 28-466)": "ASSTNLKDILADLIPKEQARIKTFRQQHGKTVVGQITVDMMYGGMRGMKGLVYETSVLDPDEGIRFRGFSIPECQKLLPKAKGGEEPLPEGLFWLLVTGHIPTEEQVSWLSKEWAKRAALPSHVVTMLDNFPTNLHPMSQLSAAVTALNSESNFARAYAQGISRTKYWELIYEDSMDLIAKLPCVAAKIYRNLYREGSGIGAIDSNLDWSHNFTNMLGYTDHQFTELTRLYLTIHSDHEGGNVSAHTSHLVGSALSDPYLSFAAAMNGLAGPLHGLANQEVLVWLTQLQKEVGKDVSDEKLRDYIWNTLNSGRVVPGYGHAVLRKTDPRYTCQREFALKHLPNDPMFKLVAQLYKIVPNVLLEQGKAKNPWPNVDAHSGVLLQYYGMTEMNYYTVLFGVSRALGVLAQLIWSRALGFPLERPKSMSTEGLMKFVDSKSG", "experiment": "Citrate synthetase complex reaction under gas", "format": "biochemical", "procedure": "as §1, §2, §3, §4"}, "α-D-glucosidase": {"test_system": "α-D-glucosidase", "experiment": "α-D-glucosidase activity under gas", "format": "biochemical", "conditions": "60° C., FIG. 43", "procedure": "Solution preparation: Optimized w/v solutions are prepared by diluting the enzyme (units/ml) and the substrate (μg/ml) in appropriate buffer (optimized pH and molarity for enzymes). The solutions are used for gas experiments at once to avoid loss of activity. Various enzyme and substrate concentrations and inhibitors may be employed. Physical parameters are varied as required. […] Gas-tight serum vials are filled with enzyme and solvent. Sufficient gas is consecutively bubbled in the cuvets and serum vials, with a 1-hr wait between injections to maximize equilibration of gas. All syringes and dead spaces are purged before filling with the appropriate gas. The amount of gas used has been measured sufficient to saturate the solution required. Spectrophotometric time-drive, reaction rate, and kinetic analyses: cuvets and serum vials are saturated with gas 40 minutes before the run. A gas-filled syringe is used to retrieve 0.5 ml of enzyme solution to avoid air contact. […] Changes in the rate or final equilibrium of the reaction versus ambient air are recorded. Comparison is also made with added oxygen, and with deoxygenation. Some samples are also prepared under pressure."}, "Acetyl S-CoA synthetase": {"test_system": "Acetyl S-CoA synthetase", "experiment": "Acetyl S-CoA synthetase activity under gas (coupled sequence or isolated reaction)", "format": "biochemical", "conditions": "depending upon temperature", "procedure": "as §1, §2, §3\nMaximum observed enhancement vs maximum observed inhibition (depending upon temperature):\nIn a coupled complex reaction sequence including hydrolytic enzymes: […]"}, "[1]": {"target": "Triosephosphate isomerase (Homo sapiens, UniProt P60174)", "sequence (P60174 2-249 limits assumed, species assumed)": "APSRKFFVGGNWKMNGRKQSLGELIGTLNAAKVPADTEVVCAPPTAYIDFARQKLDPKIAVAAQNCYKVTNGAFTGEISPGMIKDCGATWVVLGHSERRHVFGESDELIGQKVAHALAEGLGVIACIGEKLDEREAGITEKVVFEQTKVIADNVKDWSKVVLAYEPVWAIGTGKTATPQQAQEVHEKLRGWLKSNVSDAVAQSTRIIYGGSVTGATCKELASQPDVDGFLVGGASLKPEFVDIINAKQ", "experiment": "Triosephosphate isomerase activity under gas", "format": "biochemical", "conditions": "10° C.; plus = enhancement", "procedure": "as §1, §2, §3, §4"}, "Tyrosinase": {"test_system": "Tyrosinase", "experiment": "Tyrosinase-L-tyrosine reaction, solution saturated with gas", "format": "biochemical, Mushroom", "conditions": "for temperature dependence of the effect on tyrosinase: various temperatures (15-35° C.); for effect on rate and final equilibrium of the tyrosinase-L-tyrosine reaction: various temperatures", "procedure": "as §1, §2, §3\n1. Solution preparation: 10% w/v solutions are prepared by diluting the enzyme (units/ml) and the substrate (μg/ml) in Sodium Phosphate buffer (pH 6.85, optimized pH for enzymes). The solutions are stored in refrigerator (0°-5° C.) and used for gas experiments within 2 or 3 days to avoid loss of activity.\n6. Preparation of run samples: Acrylic cuvets are filled with 2 ml of substrate solution by means of a gas tight syringe. Gastight serum vials are filled with enzyme. 3×10 cc of gas are consecutively bubbled in the cuvets and serum vials, with a […] between injections. This represents a 10× displacement of dead volume while maximizing equilibration of gas. All syringes and dead spaces are purged before filling with the appropriate gas. After the third 10 cc injection, the cuvets and serum vials are left overnight under two 10 cc syringes filled with the appropriate gas in refrigerator at 0°-5° C.\n8. Spectrophotometric runs: The cuvets and serum vials are filled with 10 cc of gas 40 min before the run. A gas-filled syringe is used to retrieve 0.5 ml of enzyme solution to avoid air contact. The 0.5 ml syringe injections of enzyme are made simultaneously to effect a common starting time t0 for the samples. Seven gases (air, O2, N2, Ne, Ar, Kr, Xe) are run at five temperatures each (15° C., 20° C., 25° C., 30° C., 35° C.). Changes in the rate or final equilibrium of the reaction versus ambient air are recorded.\nThe optimal conditions are [E]/[S] (100 μg/ml)/(100 μg/ml), the changes in absorbance being observed at 305 nm.\n3×10 cc of gas are bubbled in the silicone-sealed cuvets and serum vials (T-3754, T-7755), with an interval of 20 min (at 0°-5°C.) between each gas injection.\na. The silicone-sealed cuvets are removed from the refrigerator 40 min before the experimental run, filled with 10 cc of gas and left at room temperature (26° C.) under two 10 cc syringes.\nThe 0.5 ml syringe injections of enzyme are made simultaneously to effect a common starting time t0 for the samples.\n200 points, 18 s intervals 1 hr run"}, "[2]": {"conditions": "coupled complex reaction sequence including hydrolytic enzymes"}}, "note": "Entries after “also recorded” stand apart in the source; their conditions may differ."}
{"smiles": "[Xe]", "note": "[Xe, xenon]", "values": [{"measurement": "effect", "setting": "Beta-D-glucosidase; plus = enhancement", "result": "+40%"}, {"measurement": "enhancement", "setting": "Beta-D-glucosidase; with the addition of different competing substrates", "result": "up to 200%"}, {"measurement": "effect on citrate synthetase complex reaction", "setting": "citrate synthetase; 10° C.", "result": "+18"}, {"measurement": "effect on citrate synthetase complex reaction", "setting": "citrate synthetase; 25° C.", "result": 0}, {"measurement": "effect on citrate synthetase complex reaction", "setting": "citrate synthetase; 35° C.", "result": "+32"}, {"measurement": "effect on citrate synthase", "setting": "citrate synthetase; FIG. 33", "result": "enhancement"}, {"measurement": "effect on α-glucosidase activity", "setting": "α-D-glucosidase", "result": "enhanced"}, {"measurement": "Maximum observed enhancement", "setting": "Acetyl S-CoA synthetase; [2]", "result": "+18.3%"}, {"measurement": "maximum observed inhibition", "setting": "Acetyl S-CoA synthetase; [2]", "result": -25.0, "unit": "%"}, {"measurement": "Maximum observed enhancement", "setting": "Acetyl S-CoA synthetase; isolated reaction", "result": "+15.4%"}, {"measurement": "maximum observed inhibition", "setting": "Acetyl S-CoA synthetase; isolated reaction", "result": -39.5, "unit": "%"}, {"measurement": "effect", "setting": "[1]", "result": "+24%"}, {"measurement": "effect on tyrosinase-L-tyrosine reaction", "setting": "Tyrosinase; 15° C.", "result": "small, but significant inhibitory effect; also recorded: small but significant inhibitory effect"}, {"measurement": "effect on tyrosinase-L-tyrosine reaction", "setting": "Tyrosinase; 20° C.", "result": "inhibits the tyrosinase-L-tyrosine reaction quite strongly; also recorded: dramatically inhibit; also recorded: inhibiting effects"}, {"measurement": "effect on tyrosinase-L-tyrosine reaction", "setting": "Tyrosinase; 25° C.", "result": "inhibitory effect"}, {"measurement": "effect", "setting": "Tyrosinase; 25° C., optimal reaction conditions, simple saturation of solution with gas, minus = inhibition", "result": -73, "unit": "%"}, {"measurement": "effect on tyrosinase", "setting": "Tyrosinase; 26° C.", "result": "very large inhibition; also recorded: optimal inhibition curve"}, {"measurement": "area of run curve", "setting": "Tyrosinase; 26° C., FIG. 6", "result": "~3037", "unit": "μ"}, {"measurement": "inhibition of air rate", "setting": "Tyrosinase; 26° C., FIG. 6, estimated from curve areas", "result": "~72.92", "unit": "%"}, {"measurement": "total area as % of air area", "setting": "Tyrosinase; 26° C., FIG. 6, 60 min", "result": "~27.08", "unit": "%"}, {"measurement": "% total area", "setting": "Tyrosinase; 26° C., FIG. 6, total = air + xenon areas", "result": "~21.31"}, {"measurement": "effect on tyrosinase-L-tyrosine reaction", "setting": "Tyrosinase; 30° C., listed as Xenon", "result": "inhibits the reaction much better than other gases"}, {"measurement": "effect on tyrosinase-L-tyrosine reaction", "setting": "Tyrosinase; 30° C., listed as xenon", "result": "inhibitory effect"}, {"measurement": "effect on tyrosinase", "setting": "Tyrosinase; equal w/w, FIG. 5", "result": "inhibition"}, {"measurement": "temperature dependence of the effect on tyrosinase", "setting": "Tyrosinase; listed as Xenon", "result": "interacts inversely with temperature"}, {"measurement": "temperature dependence of the effect on tyrosinase", "setting": "Tyrosinase; listed as xenon", "result": "at least two activity transitions; also recorded: large difference in xenon activity between 20 °C and 25 °C; also recorded: interacts inversely with temperature; also recorded: large difference in xenon activity between 20° and 25 °C"}, {"measurement": "effect on rate and final equilibrium of the tyrosinase-L-tyrosine reaction", "setting": "Tyrosinase; listed as Xenon", "result": "significantly inhibits the rate and depresses the final equilibrium"}, {"measurement": "effect on rate and final equilibrium of the tyrosinase-L-tyrosine reaction", "setting": "Tyrosinase; listed as xenon", "result": "inhibits the equilibrium of the tyrosinase-L-tyrosine reaction better than other gases; also recorded: inhibition"}]}
